{"source": "patent US20050277586A1", "about": "“Peptide chemically modified with polyethylene glycol” (priority 2002, published 2005)", "key": {"[1]": {"test_system": "Lewis lung carcinoma cell", "assay": "In vivo HSV-tk gene introduction plus GCV, survival of mice with Lewis lung carcinoma in abdominal cavity", "set-up": "species or system mouse", "conditions": "GCV only, 30 mg/kg/day", "description": "To be more specific, 1×10^5 Lewis lung carcinoma cells were transplanted in the abdominal cavity of a C57BL/6 mouse (purchased from Charles River JAPAN), and a mixture of 10 μg of the HSV-tk-expressing plasmid prepared in Example 7 and 40 nmol of the peptide of SEQ ID NO: 16 prepared in Example 1 was administered in the abdominal cavity after the cell transplantation. The mouse was also administered with GCV at a dose of 30 mg/kg/day from 1st to 8th day after the transplantation."}, "[2]": {"assay": "Toxicity of the peptide, tail vein administration", "type": "in vivo", "conditions": "female BALB/c mouse, 5 mg/kg", "description": "The peptide used in the present invention was administered to a mouse from its tail vein to thereby evaluate its toxicity. The mouse used was a female BALB/c mouse of 5 week old, and the peptide was used at a dose of 5 mg/kg."}, "Vero cell": {"test_system": "Vero cell", "assay": "Storage stability of the complex with nucleic acid (gene-introducing activity after 4° C., 1 week)", "type": "cell-based, monkey", "conditions": "complex with luciferase plasmid stored at 4° C. for 1 week", "description": "Luciferase-expressing plasmid was introduced in Vero cell in accordance with the procedure described in Example 9 by using the opti-MEM prepared to have a concentration of the luciferase-expressing plasmid prepared in Example 7 of 2 μg/mL and a concentration of the peptide of SEQ ID NO: 4 prepared in Example 1 of 5 μM to thereby measure the luciferase activity. The opti-MEM containing plasmid and peptide used were the one which had been prepared immediately before the gene introduction, and the one which had been prepared 1 week (7 days) in advance and stored at 4° C.\nFor the purpose of reference, gene-introducing activity of Lipofectin and LipofectAMINE 2000 (manufactured by Life Technologies Oriental), which are commercially available plasmid-introducing agents, were also evaluated by mixing these reagent with luciferase-expressing plasmid in accordance with the attached protocol, and evaluating their gene-introducing activity after storing at 4° C. for 1 week."}, "[3]": {"assay": "Measurement of CD spectrum with and without SDS", "type": "physicochemical", "conditions": "10 mM phosphate buffer pH 7, 50 mM NaCl, 35° C.; for α-helix structure in CD spectroscopy in the presence of SDS: 5 mM SDS", "description": "The peptide dissolved in 10 mM phosphate buffer (pH=7) containing 50 mM NaCl was evaluated for its CD spectrum in the presence and in the absence of 5 mM SDS by using a circular dichroism spectrophotometer (J-500A, manufactured by JASCO). The cell length was 1 mm. The measurement was conducted at 35° C. for 6 times in total."}, "[4]": {"test_system": "Vero cell, T24 cell, A549 cell", "assay": "Nucleic acid-introducing ability, luciferase-expressing plasmid (procedure of Example 9)", "type": "cell-based", "description": "A cell line established from monkey kidney (Vero cell) and a human bladder cancer cell (T24 cell) purchased from American Type Culture Collection (ATCC) and human lung cancer cell (A549 cell) purchased from Dainippon Pharmaceutical were inoculated on a 24 well culture plate (manufactured by NALGEN NUNC) at 1×10^5 cells/well. Vero cell and A549 cell were cultivated in DMEM (manufactured by Life Technologies Oriental) supplemented with 10% fetal bovine serum (hereinafter referred to as FBS, manufactured by NICHIREI), and T24 cell was cultivated in McCoy's 5a (manufactured by Life Technologies Oriental) supplemented with 10% FBS in 5% CO2 atmosphere at 37° C. for 24 hours. After removing the medium, opti-MEM (manufactured by Life Technologies Oriental) prepared to have the concentration of the luciferase-expressing plasmid prepared in Example 7 of 1 μg/mL and the concentration of the peptide prepared in Example 1 of 1.25, 2.5, or 5 μM was added, and the cells were cultivated for 5 hours. Next, in the case of Vero cell and A549 cell, the culture medium was replaced with DMEM supplemented with 10% FBS, and in the case of T24 cell, the medium was replaced with McCoy's 5a supplemented with 10% FBS, and cultivation was continued in 5% CO2 atmosphere and at 37° C. for another 24 hours. The luciferase activity expressed in the cell was then measured by the method instructed in luciferase assay system (manufactured by Promega). To be more specific, the cells were washed with phosphate-buffered saline (hereinafter referred to as PBS, manufactured by SIGMA), and the cells were lyzed with Passive Lysis Buffer attached to the kit.\n20 μL of this cell lysate and 100 μL of the Luciferase Assay Reagent II attached to the kit was added to a fluorescence-measuring plate (Microlite™ 1 plate, manufactured by Dynatech), and after mixing, fluorescence was measured for 1 second by using a multilabel counter (ARVO™ SY1420 MULTILABEL COUNTER, manufactured by Wallac Beltold.\nConcentration of the protein in the cell lysate was measured by mixing 8 μL of the cell lysate and 200 μL of the protein assay solution (manufactured by Biorad) with 792 μL of ultrapure water in a disposable cuvette (UV fluorescent cuvette A204X, manufactured by Funakoshi), allowing the mixture to stand for 5 minutes at room temperature, and measuring the absorption at 595 nm with a spectrophotometer (DU640, manufactured by Beckman). Bovine serum albumin (BSA) was used for the standard protein. By using the thus obtained results, count per 1 second per 1 mg of protein of the cell lysate was calculated to thereby use the count as the luciferase activity, and the highest count in the three conditions of different peptide concentration was designated the gene-introducing ability of the peptide."}, "[5]": {"assay": "Affinity for phosphatidyl serine by surface plasmon resonance (Biacore 2000)", "type": "binding", "conditions": "in the presence of 0.1 mg/mL BSA", "description": "The specific affinity of the peptide for phosphatidyl serine was evaluated by means of surface plasmon resonance (SPR) using Biacore 2000 (manufactured by Biacore). To be more specific, phosphatidyl choline was immobilized on flow cell 1, and 50% of phosphatidyl serine and 50% of phosphatidyl choline were immobilized on flow cell 2 of HPA chip (manufactured by Biacore), and ability of the peptide to bind to the phospholipid was evaluated in the presence of 0.1 mg/mL BSA to thereby evaluate the affinity."}}, "note": "No end group written: not given here."}
{"compound": "Nc1nc(O)c2ncn(COC(CO)CO)c2n1", "note": "[GCV, ganciclovir]", "values": [{"measurement": "Average survival period", "setting": "[1]", "value": 14, "unit": "days"}]}
{"compound": "LARLLARLLARLLRALLRALLRAL [SEQ ID NO: 27]", "values": [{"measurement": "Toxicity after tail vein administration", "setting": "[2]", "value": "died immediately after the administration"}]}
{"compound": "SEQ ID NO: 4: SEQ ID NO: 1 with one or two locations in the 18 amino acid sequence substituted (TRYLRIHPRSWLHQIALRLRYLRIHPRSWLHQIALRS)", "values": [{"measurement": "Gene-introducing activity after storage relative to freshly prepared complex", "setting": "Vero cell", "value": "substantially equivalent"}, {"measurement": "α-helix structure in CD spectroscopy in the presence of SDS", "setting": "[3]", "value": "are in α-helix structure in the presence of SDS"}, {"measurement": "α-helix structure in CD spectroscopy in the absence of SDS", "setting": "[3]; no SDS", "value": "do not take α-helix structure in an aqueous solution solely containing an inorganic salt"}, {"measurement": "Nucleic acid-introducing ability", "setting": "[4]; luciferase plasmid 1 μg/mL, highest count of peptide 1.25, 2.5 or 5 μM, cell line not stated", "value": "4+ (10,000,000 to less than 100,000,000)"}]}
{"compound": "SEQ ID NO: 25: same amino acid composition as SEQ ID NO: 1 but with an utterly random amino acid sequence (TIRYRPSHQIRLRAVLHLWIRYRPSHQIRLRAVLHWS) [reference compound]", "values": [{"measurement": "α-helix structure in CD spectroscopy in the presence of SDS", "setting": "[3]", "value": "no α-helix structure is found even in the presence of SDS"}, {"measurement": "Binding to flow cell 2 (50% phosphatidyl serine, 50% phosphatidyl choline) and flow cell 1 (phosphatidyl choline)", "setting": "[5]", "value": "showed no binding"}, {"measurement": "Ability of introducing the nucleic acid into a cell", "setting": "[4]; procedure of Example 9", "value": "neither the nucleic acid-introducing ability"}]}
